Measurements published in patent US20260035338A1, “AMINO LIPID COMPOUND AND LIPID NANOPARTICLE FOR DELIVERING BIOACTIVE INGREDIENT” (SHENZHEN SHENXIN BIOTECHNOLOGY CO., LTD., priority 2022, published 2026).

How the values were obtained:
BALB/c mice = test: In vivo delivery of Fluc mRNA-encapsulating LNP formulations, luciferase signal by In Vivo Imaging System (IVIS); conditions: tail vein injection (IV) 70 μL, female BALB/c mice, 6 hours after injection; for Average number of photons (Total in-vivo flux): LNP formulation encapsulating Fluc mRNA (Lipid:DSPC:CHO-HP:M-DMG-2000 48:10:40.5:1.5); for Average number of photons (Liver) / Average number of photons (Spleen): LNP formulation encapsulating Fluc mRNA
Description: Animal preparation: Female BALB/c mice of 6-8 weeks old were selected and raised in an SPF grade breeding room. Animal testing was conducted in strict accordance with the guidelines of national health institutions and animal ethics requirements.
In vivo Delivery: prior to injection of the test LNP formulation, the LNP formulation was gently and repeatedly inverted to thoroughly mix the sample of the formulation. A corresponding amount of the LNP formulation was aspirated with a 1 ml insulin syringe, and the LNP formulation was injected by tail vein injection (IV), with 3 mice in duplicate per formulation. Each mouse was injected with 70 μL of the corresponding LNP formulation encapsulating the luciferase mRNA (Fluc mRNA) prepared in Experimental Example 1.
6 hours after injection of LNP formulations, mice were injected with 200 μL D-Luciferin luciferase developing substrate (Catalog No. 122799; Manufacturer: Perkin Elmer). After the substrate was injected, the mice were anesthetized with isoflurane inhalation, and the injection time of luciferase developing substrate was recorded.
The encapsulation efficiency of the lipid nanoparticle encapsulating luciferase mRNA (Fluc mRNA) with a representative amino lipid compound and the fluorescence expression intensity induced by the same are shown in Table 4, with the LNP formulation containing SM-102, 1001 or ALC-0315 as a control LNP formulation. The preparation method of the control LNP formulation was basically the same as that of the LNP formulations in Experimental Example 1, with the difference lying in that the amino lipid compounds of the present disclosure were replaced with SM-102, 1001 or ALC-0315 in the preparation of the control LNP formulation.

[1] = system: immune cell populations in the spleen and PBMC; test: Delivery efficiency of eGFP mRNA LNP to immune cell populations in spleen and peripheral blood (flow cytometry); assay type: in vivo; conditions: eGFP mRNA encapsulating LNP, intravenous, C57BL/6 mice, 12 hours, flow cytometry (FIG. 6 to 7)
Description: C57BL/6 mice (3 mice per group) were intravenously injected with eGFP mRNA encapsulating LNP. After 12 hours, the mice were dissected, and the spleen and peripheral blood, were collected to prepare single-cell suspensions of various tissues and organs. After blocking with Fc blocking antibodies and surface staining with fluorescent-labeled antibodies, flow cytometry was conducted to analyze the expression levels of eGFP in various immune cell populations to confirm the delivery efficiency of lipid nanoparticles comprising different amino lipid compounds to immune cell populations in different tissues and organs.
“Blank” in FIG. 6 and FIG. 7 refers to the control group injected with 100 μL Tris buffer.

CCCCCCOC(CCCOC(=O)CCCCCC(CCCCCC(=O)OCCCC(OCCCCCC)OCCCCCC)OC(=O)OCCCN(CC)CC)OCCCCCC [compound 2043]
Average number of photons (Total in-vivo flux) (BALB/c mice): 1.64E+08 | Average number of photons (Liver) (BALB/c mice): 2.59E+07 | Average number of photons (Spleen) (BALB/c mice): 1.07E+07 | delivery efficiency to immune cell populations (eGFP expression) [1]: different delivery preferences to different immune cells

CCCCCCOC(CCCOC(=O)CCCCCCCCC(CCCCCCCCC(=O)OCCCC(OCCCCCC)OCCCCCC)OC(=O)OCCCN(CC)CC)OCCCCCC [compound 382]
Average number of photons (Total in-vivo flux) (BALB/c mice): 5.28E+07 | Average number of photons (Liver) (BALB/c mice): 6.78E+06 | Average number of photons (Spleen) (BALB/c mice): 1.88E+05 | delivery efficiency to immune cell populations (eGFP expression) [1]: different delivery preferences to different immune cells

CCCCCCOC(CCCOC(=O)CCCCCC(CCCCCC(=O)OCCCC(OCCCCCC)OCCCCCC)OC(=O)OCCCN(CC)CC)OCCCCCC [compound 2045]
Average number of photons (Total in-vivo flux) (BALB/c mice): 5.83E+07 | Average number of photons (Liver) (BALB/c mice): 8.90E+06 | Average number of photons (Spleen) (BALB/c mice): 1.89E+06 | delivery efficiency to immune cell populations (eGFP expression) [1]: different delivery preferences to different immune cells
